pIC50: −log10 of the molar value.
How the values were obtained:
HCT116 MTAP-/- = experiment: Inhibition of cellular proliferation, 4 days, Cell Titer Glo, HCT116 MTAP-/-; format: cell-based; conditions: Homo sapiens, HCT-116, 96 h, IC50 score, read-out: 4 Day Relative Growth Inhibition (MTAP −/−)
Experimental: (§1) Assay for Inhibition of Cellular Proliferation
(§2) Test compound impact on cancer cell growth was assessed by treating cancer cells with compound for 4 days and then measuring proliferation using an ATP-based cell proliferation readout (Cell Titer Glo, Promega Corporation).
(§3) In a typical assay an isogenic pair of HCT116 human colon carcinoma cell lines which vary only in MTAP deletion status (HCT116 MTAP +/+ and HCT116 MTAP−/−) were plated in 96-well dishes at appropriate cell density. Following 24 hours, cells were then treated with the candidate MAT2A inhibitor. Prior to addition to cells, the compound was first serially diluted in 100% DMSO, typically as a 3-fold serial dilution starting at 500× top dose with 10 dose points including DMSO only control. Compound was then transferred to a working stock plate in cell culture media by adding 5 μL of compound in DMSO to 495 μL of cell culture media. This working stock was then added to cells via a further 5-fold dilution, by adding 25 μL of working stock to 100 μL of cells in culture media. Following compound addition, cells were incubated at 37° C./5% C02 for 4 days.
(§4) To measure inhibition of cellular proliferation, cells were allowed to equilibrate to room temperature for 30 minutes, and were then treated with 125 μL of Cell Titer Glo reagent. The plate was then covered with aluminum foil and shaken for 15 minutes to ensure complete mixing and full cell lysis. Luminescent signal was then measured using a plate-based luminometer Veritas version 1.9.2 using ATP standard curve to confirm assay reproducibility from run to run. This luminescence measure was converted to a proliferation index by subtracting from each data point the ATP luminescence signal measured from a bank (no cells) well and dividing by the ATP luminescence signal measured in 0.2% DMSO control well adjusted for signal in blank well. Compound activity was then represented as a percentage change in proliferation relative to a within-plate DMSO control against log 10 of compound concentration in molar (M) units.

MAT2A homodimer = target: T1, MAT2A homodimer (Homo sapiens, UniProt P31153); experiment: Biochemical assay: inhibition of recombinant MAT2A homodimer (phosphate release, PiColorLock Gold); conditions: MAT2A IC50 score; read-out: Enzyme Inhibition
T1 construct: inferred from Ni sepharose purification and imidazole elution; made in house; host or cells: Sf9 insect cells, recombinant baculovirus (Bac to Bac, pFASTBAC1 vector)
T1 sequence (P31153 whole entry): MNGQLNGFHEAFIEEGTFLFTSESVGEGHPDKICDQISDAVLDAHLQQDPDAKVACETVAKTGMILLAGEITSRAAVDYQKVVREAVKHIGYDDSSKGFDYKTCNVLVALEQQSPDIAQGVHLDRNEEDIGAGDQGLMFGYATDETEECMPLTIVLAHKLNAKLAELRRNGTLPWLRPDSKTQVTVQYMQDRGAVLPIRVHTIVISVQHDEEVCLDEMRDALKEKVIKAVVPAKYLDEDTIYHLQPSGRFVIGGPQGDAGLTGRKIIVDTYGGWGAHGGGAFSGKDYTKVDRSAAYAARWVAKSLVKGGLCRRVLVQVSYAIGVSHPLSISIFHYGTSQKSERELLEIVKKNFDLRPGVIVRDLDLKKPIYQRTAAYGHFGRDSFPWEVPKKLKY
Experimental: Mat2A protein was expressed by recombinant baculovirus in SF9 infected cells using the Bac to Bac system cloned into the pFASTBAC1 vector (Invitrogen, Carlsbad, Calif.). Recombinant MAT2A was isolated from the cell lysate of 150 g of infected cells using HP Ni sepharose column chromatography. Recombinant MAT2A homodimer was eluted with 250 and 500 mM imidazole, and fractions containing MAT2A were identified by sodium dodecyl sulfate polyacrylamide gel electrophoresis and pooled.
For determination of the inhibitory potency of compounds against the MAT2A homodimer, protein was diluted to 4 μg/mL in assay buffer (50 mM Tris, pH 8.0, 50 mM KCl, 15 mM MgCl2, 0.3 mM EDTA, 0.005% [w/v] bovine serum albumin [BSA]). Test compound was prepared in 100% dimethyl sulfoxide (DMSO) at 50× the desired final concentration. A 1 μL volume of compound dilution was added to 40 μL of enzyme dilution and the mixture was allowed to equilibrate for 60 minutes at 25° C. The enzymatic assay was initiated by the addition of 10 μL of substrate mix (500 μM ATP, pH 7.0, 40 μM L-methionine in 1× assay buffer), and the mixture was incubated for a further 60 minutes at 25° C. The reaction was halted and the liberated phosphate released by the enzyme in stoichiometric amounts by the production of S-adenosyl methionine (SAM) was measured using the PiColorLock Gold kit (Innova Biosciences, UK). Absolute product amounts were determined by comparison to a standard curve of potassium phosphate buffer, pH 8.0.

[1] = tested on: SAM in HCT116 human colon carcinoma cell line with deleted MTAP gene; experiment: Cellular assay of target engagement (SAM): SAM level by LC-MS/MS after 72 hrs; format: cell-based; conditions: HCT-116, IC50 score, read-out: Cell 72 h SAM Inhibition (MTAP −/−)
Experimental: Cellular Assay of Target Engagement (SAM)
Measurement of MAT2A activity in cells was made by direct quantitation of the abundance of the product of its enzymatic activity, SAM. Cancer cells were treated with candidate MAT2A inhibitors for a suitable incubation period, and the cells were then lysed using a reagent which quenched any further enzyme activity. Soluble metabolites including SAM were collected and SAM itself was directly measured from the lysate using quantitative LC-MS/MS.
A typical assay was performed using an HCT116 human colon carcinoma cell line which was genetically engineered to delete the MTAP gene (commercially available from Horizon Discovery). This cell line was utilized because it was determined that loss of the MTAP gene predicts sensitivity to MAT2A inhibitors. Cells were plated in 96-well dishes at appropriate cell density. Following 24 hours, cells were then treated with the candidate MAT2A inhibitor. Prior to addition to cells, the compound was first serially diluted in 100% DMSO, typically as a 3-fold serial dilution starting at 500× top dose with 10 dose points including DMSO only control. Compound was then transferred to a working stock plate in cell culture media by adding 5 μL of compound in DMSO to 495 μL of cell culture media. This working stock was then added to cells via a further 5-fold dilution, by adding 25 μL of working stock to 100 μL of cells in culture media. Following compound addition, cells were incubated at 37° C./5% CO2 for 72 hrs.
To quantitate SAM levels following compound treatment, cells were gently washed once in ammonium carbonate buffer (75 mM at pH 7.4), placed on dry ice, and lysed with metabolite extraction buffer (80% cold methanol and 20% water (v/v) with acetic acid at 1M final concentration with 200 ng/mL deuterated d3-SAM as internal control). Following centrifugation at 4° C. at 3,200 rpm for 30 minutes, the supernatant was collected and stored at −80° C. until analysis by Liquid Chromatography with tandem Mass Spectrometry (LC-MS/MS). LC-MS/MS analysis was performed using an API6500 Mass Spectrometer (Sciex, Framingham, Mass., USA) operating in positive ion spray mode and equipped with a Waters UPLC Acquity (Waters, Milford, Mass., USA) BEH Amide column. Multiple Reaction Monitoring data was acquired for SAM and the d3-SAM standard, using a mass transition pair at m/z 399.2→250.1 and 402.2→250.1, respectively. In a typical LC-MS/MS analysis, the initial flow rate was 0.5 ml/min of 25% mobile phase A (acetonitrile and water at 5:95 (v/v) with 1% formic acid and 10 mM ammonium acetate) and 75% mobile phase B (acetonitrile and water at 95:5 (v/v) with 1% formic acid and 10 mM ammonium acetate), 0.2-0.5 minutes with 75%-35% mobile phase B, 25%-65% mobile phase A, at 0.5 min 65% mobile phase A and 35% mobile phase B, 1.0-1.1 minutes with 35%-75% mobile phase B, 65%-25% mobile phase A, at 1.1 min 25% mobile phase A and 75% mobile phase B with a total run time of 1.5 minutes.

HCT116 MTAP +/+ = experiment: Inhibition of cellular proliferation, 4 days, Cell Titer Glo, HCT116 MTAP+/+; format: cell-based; conditions: Homo sapiens, HCT-116, 96 h, IC50 score, read-out: 4 Day Relative Growth Inhibition (MTAP +/+)
Experimental: as §1, §2, §3, §4

| SMILES | pIC50 (HCT116 MTAP-/-) | pIC50 (MAT2A homodimer) | pIC50 [1] | pIC50 (HCT116 MTAP +/+) |
| --- | --- | --- | --- | --- |
| COc1ccc(-n2c(=O)c(-c3cn[nH]c3)cc3cnc(NCC(F)(F)F)nc32)cc1 [Example 183] | ≤ 6.00 | > 7.00 | 6.00 to 7.00 | ≤ 6.00 |
| Cn1cc2cc(-c3nc4ccc(NCC(F)(F)F)nc4n(-c4ccc(Cl)cc4)c3=O)ccc2n1 [Example 226] | > 7.00 | > 7.00 | > 7.00 | ≤ 6.00 |
| [2H]C([2H])([2H])Oc1ccc(-n2c(=O)c(-c3ccc4nn(C([2H])([2H])[2H])cc4c3)cc3ccc(OC([2H])([2H])C([2H])([2H])[2H])nc32)cc1 [Example 303] | > 7.00 | > 7.00 | > 7.00 | 6.00 to 7.00 |
| Cn1cnc2ccc(-c3cc4ccc(NCC(F)(F)F)nc4n(-c4ccc(OC(F)F)cc4)c3=O)cc21 [Example 135] | > 7.00 | > 7.00 | > 7.00 | ≤ 6.00 |
| COc1ccc(-n2c(=O)c(-c3ccc4ncncc4c3)cc3cnc(NCC(F)(F)F)nc32)cc1 [Example 176] | > 7.00 | > 7.00 | > 7.00 | 6.00 to 7.00 |
| Cn1cc2cc(-c3cc4ccc(OCC(F)(F)F)nc4n(-c4ccc(Cl)cc4)c3=O)ccc2n1 [Example 119, 1-(4-chlorophenyl)-3-(2-methyl-2H-indazol-5-yl)-7-(2,2,2-trifluoroethoxy)-1,8-naphthyridin-2(1H)-one] | > 7.00 | > 7.00 | > 7.00 | ≤ 6.00 |
| COc1ccc(-n2c(=O)c(-c3ccc4c(c3)CCO4)cc3cnc(NCC(F)(F)F)nc32)cc1 [Example 173] | > 7.00 | > 7.00 | > 7.00 | ≤ 6.00 |
| CCOc1ccc2cc(-c3ccc(OC)cc3)c(=O)n(-c3ccc(OC(F)F)nc3)c2n1 [Example 158] | 6.00 to 7.00 | > 7.00 | 6.00 to 7.00 | ≤ 6.00 |
| CCOc1ccc2cc(-c3ccc4nn(C)cc4c3)c(=O)n(-c3ccc(OC(F)(F)F)nc3)c2n1 [Example 152] | > 7.00 | > 7.00 | > 7.00 | ≤ 6.00 |
| CCOc1ccc2cc(-c3ccc4nncn4c3)c(=O)n(-c3ccc(OC(F)F)cc3)c2n1 [Example 216] | > 7.00 | > 7.00 | > 7.00 | ≤ 6.00 |
| COc1ccc(-n2c(=O)c(-c3ccc4nn(CCN)cc4c3)nc3ccc(OCC(F)(F)F)nc32)cc1 [Example 347, 2-(2-(2-aminoethyl)-2H-indazol-5-yl)-4-(4-methoxyphenyl)-6-(2,2,2-trifluoroethoxy)pyrido[2,3-b]pyrazin-3(4H)-one] | 6.00 to 7.00 | > 7.00 | > 7.00 | ≤ 6.00 |
| COc1ccc(-c2cc3cnc(NCC(F)(F)F)nc3n(-c3ccc(Br)cc3)c2=O)cc1 [Example 232, 8-(4-bromophenyl)-6-(4-methoxyphenyl)-2-(2,2,2-trifluoroethylamino)pyrido[2,3-d]pyrimidin-7(8H)-one] | 6.00 to 7.00 | > 7.00 | > 7.00 | ≤ 6.00 |
| CCOc1cc(C)c2cc(-c3ccc4nn(C)cc4c3)c(=O)n(-c3ccc(Cl)cc3)c2n1 [Example 164] | > 7.00 | > 7.00 | > 7.00 | ≤ 6.00 |

Now from value to molecule:

| pIC50 (HCT116 MTAP-/-) | pIC50 (MAT2A homodimer) | pIC50 [1] | pIC50 (HCT116 MTAP +/+) | SMILES |
| --- | --- | --- | --- | --- |
| > 7.00 | > 7.00 | > 7.00 | 6.00 to 7.00 | [2H]C([2H])([2H])Oc1ccc(-n2c(=O)c(-c3ccc4nn(C)cc4c3)cc3ccc(OCCF)nc32)cc1 [Example 302] |
| > 7.00 | > 7.00 | > 7.00 | 6.00 to 7.00 | [2H]C([2H])([2H])Oc1ccc(-n2c(=O)c(-c3ccc4nn(C)cc4c3)cc3ccc(OC([2H])([2H])C([2H])([2H])[2H])nc32)cc1 [Example 301] |
| > 7.00 | > 7.00 | > 7.00 | ≤ 6.00 | Cn1cc2cc(-c3nc4ccc(OCC(F)(F)F)nc4n(-c4ccc(OC(F)F)cc4)c3=O)ccc2n1 [Example 328] |
| > 7.00 | > 7.00 | > 7.00 | ≤ 6.00 | COc1ccc(-c2cc3cnc(NCC(F)(F)F)nc3n(-c3ccc(-c4ccn[nH]4)cc3)c2=O)cc1 [Example 233, 8-(4-(1H-pyrazol-5-yl)phenyl)-6-(4-methoxyphenyl)-2-(2,2,2-trifluoroethylamino)pyrido[2,3-d]pyrimidin-7(8H)-one] |
| > 7.00 | > 7.00 | > 7.00 | 6.00 to 7.00 | Cn1cc2cc(-c3cc4ccc(OCC(F)(F)F)nc4n(-c4ccc(N)nc4)c3=O)ccc2n1 [Example 320] |
| > 7.00 | > 7.00 | > 7.00 | ≤ 6.00 | CNc1ccc(-n2c(=O)c(-c3ccc4nn(C)cc4c3)cc3ccc(OCC(F)(F)F)nc32)cn1 [Example 167] |
| > 7.00 | > 7.00 | > 7.00 | ≤ 6.00 | COc1ccc(-n2c(=O)c(-c3ccc4nn(C)cc4c3)cc3ccc(OCC(F)(F)F)nc32)cn1 [Example 123] |
| > 7.00 | > 7.00 | > 7.00 | 6.00 to 7.00 | [2H]C([2H])([2H])Oc1ccc(-n2c(=O)c(-c3ccc4nn(C)cc4c3)cc3ncc(OCC)nc32)cc1 [Example 342] |
| > 7.00 | > 7.00 | > 7.00 | ≤ 6.00 | [2H]C([2H])([2H])Oc1ccc(-n2c(=O)c(-c3ccc4nn(C)cc4c3)nc3ccc(OC(C)C)nc32)cc1 [Example 331] |

Source: patent US20220251081A1, “HETEROBICYCLIC INHIBITORS OF MAT2A AND METHODS OF USE FOR TREATING CANCER” (priority 2019, published 2022)
